{"source": "patent US20130338178A1", "about": "“SIRTUIN MODULATORS AS INHIBITORS OF CYTOMEGALOVIRUS” (THE TRUSTEES OF PRINCETON UNIVERSITY, priority 2011, published 2013)", "key": {"HCMV": {"system": "HCMV", "test": "Yield of infectious HCMV from drug-treated infected MRC5 fibroblasts", "format": "cell-based, human cytomegalovirus", "conditions": "for reduction of the yield of infectious HCMV by a factor of: MRC5, 10% fetal calf serum, added 4 hours after infection"}, "HCMV pUL99": {"system": "HCMV pUL99", "test": "Late viral pUL99 expression and cytopathic effect in HCMV infected MRC5 cells", "format": "cell-based, human cytomegalovirus"}, "SIRT1 [1]": {"molecular_target": "T1, SIRT1 (Homo sapiens, UniProt Q96EB6)", "T1 sequence (Q96EB6 1-747)": "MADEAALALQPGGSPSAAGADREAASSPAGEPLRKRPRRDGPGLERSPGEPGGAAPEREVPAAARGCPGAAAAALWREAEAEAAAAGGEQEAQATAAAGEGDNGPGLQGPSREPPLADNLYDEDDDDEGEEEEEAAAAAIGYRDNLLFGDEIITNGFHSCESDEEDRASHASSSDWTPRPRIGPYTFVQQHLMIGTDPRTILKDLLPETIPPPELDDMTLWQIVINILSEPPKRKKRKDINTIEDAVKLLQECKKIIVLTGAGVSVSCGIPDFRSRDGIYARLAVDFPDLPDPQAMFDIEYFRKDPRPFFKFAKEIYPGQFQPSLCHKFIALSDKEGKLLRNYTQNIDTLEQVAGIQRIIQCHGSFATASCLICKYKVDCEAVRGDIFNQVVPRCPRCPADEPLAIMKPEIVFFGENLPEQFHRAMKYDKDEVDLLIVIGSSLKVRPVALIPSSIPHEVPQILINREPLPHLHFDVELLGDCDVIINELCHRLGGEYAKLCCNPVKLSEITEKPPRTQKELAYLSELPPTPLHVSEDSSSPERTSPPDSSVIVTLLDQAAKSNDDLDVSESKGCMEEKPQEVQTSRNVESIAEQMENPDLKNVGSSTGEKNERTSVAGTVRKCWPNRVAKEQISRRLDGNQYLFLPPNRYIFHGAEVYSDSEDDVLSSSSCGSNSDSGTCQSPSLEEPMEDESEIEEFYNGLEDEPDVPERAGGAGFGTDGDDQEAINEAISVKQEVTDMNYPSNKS", "conditions": "cited from earlier work"}, "SIRT2 [2]": {"molecular_target": "T2, SIRT2 (Homo sapiens, UniProt Q8IXJ6)", "T2 sequence (Q8IXJ6 1-389)": "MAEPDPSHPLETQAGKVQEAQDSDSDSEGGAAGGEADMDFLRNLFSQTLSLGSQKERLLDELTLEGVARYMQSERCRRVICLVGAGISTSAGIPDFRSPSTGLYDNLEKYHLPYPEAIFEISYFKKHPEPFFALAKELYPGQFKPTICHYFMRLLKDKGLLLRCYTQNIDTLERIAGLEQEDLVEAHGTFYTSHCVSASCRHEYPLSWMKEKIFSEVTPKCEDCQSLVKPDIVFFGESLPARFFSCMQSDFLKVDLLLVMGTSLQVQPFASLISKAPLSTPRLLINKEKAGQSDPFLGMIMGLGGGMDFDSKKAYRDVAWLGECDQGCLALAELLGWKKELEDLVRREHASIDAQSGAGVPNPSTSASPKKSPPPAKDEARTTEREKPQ", "conditions": "100 μM; cited from earlier work"}, "[3]": {"system": "Influenza A (WSN/33/A, PR8)", "format": "cell-based, influenza A virus"}, "[4]": {"system": "Burkitt lymphoma xenografts", "conditions": "mouse, in vivo; cited from earlier work"}, "Hst2": {"molecular_target": "Hst2 (Saccharomyces cerevisiae, UniProt P53686)", "sequence (P53686 whole entry)": "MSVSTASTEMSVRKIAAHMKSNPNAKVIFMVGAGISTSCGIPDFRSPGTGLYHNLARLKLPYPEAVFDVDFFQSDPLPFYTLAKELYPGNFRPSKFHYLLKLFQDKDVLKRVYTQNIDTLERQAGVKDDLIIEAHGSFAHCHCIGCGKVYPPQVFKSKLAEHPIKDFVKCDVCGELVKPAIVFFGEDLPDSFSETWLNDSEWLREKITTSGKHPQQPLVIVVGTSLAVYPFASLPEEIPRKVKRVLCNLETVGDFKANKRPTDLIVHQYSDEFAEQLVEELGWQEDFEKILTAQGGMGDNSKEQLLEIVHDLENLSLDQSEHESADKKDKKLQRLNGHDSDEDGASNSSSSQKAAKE", "conditions": "cited from earlier work"}, "[5]": {"conditions": "mice; cited from earlier work"}, "SIRT1 [6]": {"molecular_target": "T1, SIRT1", "conditions": "cited from earlier work", "remark": "listed apart in the source"}, "SIRT2 [7]": {"molecular_target": "T2, SIRT2", "conditions": "cited from earlier work"}, "SIRT3": {"molecular_target": "T3, SIRT3 (Homo sapiens, UniProt Q9NTG7)", "T3 sequence (Q9NTG7 1-399)": "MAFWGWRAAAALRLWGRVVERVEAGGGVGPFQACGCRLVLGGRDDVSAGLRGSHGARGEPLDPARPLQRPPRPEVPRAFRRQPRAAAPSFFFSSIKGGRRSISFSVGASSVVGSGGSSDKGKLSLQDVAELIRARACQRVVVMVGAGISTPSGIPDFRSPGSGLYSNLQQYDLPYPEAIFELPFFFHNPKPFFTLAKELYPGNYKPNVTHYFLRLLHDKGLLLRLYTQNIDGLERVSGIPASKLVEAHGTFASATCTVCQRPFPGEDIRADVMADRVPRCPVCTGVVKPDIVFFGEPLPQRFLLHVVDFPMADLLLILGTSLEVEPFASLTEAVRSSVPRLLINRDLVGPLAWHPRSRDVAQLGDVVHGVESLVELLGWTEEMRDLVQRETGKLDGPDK", "conditions": "cited from earlier work"}, "[8]": {"system": "tumor necrosis factor alpha (TNFα) release", "conditions": "cited from earlier work"}}, "note": "Where two headings read alike, the source gives them in different places."}
{"compound": "Oc1ccc(C=Cc2cc(O)cc(O)c2)cc1", "note": "[Resveratrol]", "values": [{"measurement": "reduction of the yield of infectious HCMV by a factor of", "setting": "HCMV; 50 μM", "value": "> 18", "unit": "fold"}, {"measurement": "reduction of the yield of infectious HCMV by a factor of", "setting": "HCMV; 100 μM", "value": "> 100", "unit": "fold"}, {"measurement": "cytopathic effect of HCMV", "setting": "HCMV pUL99; HCMV infected MRC5 cells, added 4 hours after infection, data not shown", "value": "inhibited"}, {"measurement": "expression of late viral pUL99", "setting": "HCMV pUL99; dose dependent, data not shown", "value": "substantially reduced"}, {"measurement": "increase of SIRT1 activity", "setting": "SIRT1 [1]; 46 μM", "value": 1.5, "unit": "fold"}, {"measurement": "increase of SIRT1 activity", "setting": "SIRT1 [1]; 100 μM", "value": 13, "unit": "fold"}, {"measurement": "EC1.5: The concentration to activate 1.5-fold", "setting": "SIRT1 [1]", "value": 46, "unit": "µM"}, {"measurement": "activation of SIRT2", "setting": "SIRT2 [2]", "value": "does not activate"}]}
{"compound": "Cambinol", "values": [{"measurement": "virus yield", "setting": "HCMV; 50 μM, 96 h after infection, limit of detection", "value": "< 10^2 IU/ml"}, {"measurement": "pUL99 accumulation", "setting": "HCMV pUL99; 50 μM, data not shown", "value": "substantial block"}, {"measurement": "inhibition of influenza A in combination with oseltamivir", "setting": "[3]", "value": "cooperated with oseltamivir"}, {"measurement": "production of infectious Influenza A progeny", "setting": "[3]", "value": "inhibited"}, {"measurement": "Burkitt lymphoma xenografts", "setting": "[4]", "value": "inhibits"}, {"measurement": "IC50", "setting": "Hst2", "value": "> 1000", "unit": "µM"}, {"measurement": "tolerability", "setting": "[5]", "value": "well-tolerated"}]}
{"compound": "CC(=O)Nc1ccc(NC(=S)NC(=O)c2ccc(C(C)(C)C)cc2)cc1", "note": "[Tenovin 1]", "values": [{"measurement": "IC50", "setting": "SIRT1 [6]", "value": 21, "unit": "µM"}, {"measurement": "IC50", "setting": "SIRT2 [7]", "value": 10, "unit": "µM"}, {"measurement": "IC50", "setting": "SIRT3", "value": 67, "unit": "µM"}]}
{"compound": "Nc1c(S(=O)(=O)c2ccccc2)c2nc3ccccc3nc2n1-c1ccc(F)cc1", "note": "[CAY10602]", "values": [{"measurement": "pUL99 expression", "setting": "HCMV pUL99; 25 μM", "value": "almost completely inhibited"}, {"measurement": "suppression of TNFα release, extent relative to resveratrol", "setting": "[8]", "value": 10, "unit": "fold"}]}
